Where two headings read alike, the source gives them in different places.
How the values were obtained:
histamine receptor H1 = histamine receptor H1 (Homo sapiens, UniProt P35367); experiment: Histamine H1 radioligand binding ([3H]Pyrilamine); conditions: read-out: Histamine Binding (1 μM) H1, percent inhibition of specific binding, 1 μM
How it was run: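 Values are percent inhibition of specific [3H]pyrilamine (1.2 nM) binding with compounds at ≤1 μM (1% DMSO vehicle); 180 min incubation at 25 °C, pH 7.4 Tris buffer, on CHO-expressed human H1 receptor; 1 μM pyrilamine defined nonspecific binding, bound ligand counted after filtration.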

[1] = target: human dopamine D2L receptor (Homo sapiens, UniProt P14416); experiment: Dopamine D2L radioligand binding ([3H]Spiperone); conditions: compound at 1 μM
Sequence of human dopamine D2L receptor (P14416 whole entry): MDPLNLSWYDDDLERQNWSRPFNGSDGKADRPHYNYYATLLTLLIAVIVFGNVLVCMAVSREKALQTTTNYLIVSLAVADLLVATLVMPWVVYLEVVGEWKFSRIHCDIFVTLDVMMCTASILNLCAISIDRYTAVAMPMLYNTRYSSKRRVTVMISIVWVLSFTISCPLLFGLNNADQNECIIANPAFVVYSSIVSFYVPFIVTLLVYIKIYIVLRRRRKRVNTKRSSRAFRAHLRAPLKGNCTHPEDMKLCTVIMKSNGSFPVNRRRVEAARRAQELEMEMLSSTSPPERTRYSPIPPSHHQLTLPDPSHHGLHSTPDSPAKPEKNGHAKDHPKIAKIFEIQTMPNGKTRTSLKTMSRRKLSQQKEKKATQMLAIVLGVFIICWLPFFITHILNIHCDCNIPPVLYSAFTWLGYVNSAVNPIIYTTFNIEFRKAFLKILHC
Text: Non-specific binding was estimated in the presence of […] Haloperidol. Receptor proteins were filtered and washed, the filters were then counted to determine [^3H]Spiperone specifically bound. […] Biochemical assay results are presented as the percent inhibition of specific binding in Table 9.

[2] = […] [3H]Spiperone, read-out: Inhibition of ligand binding, Dopamine D2L (percent inhibition of specific binding)
[3] = percent inhibition of specific binding, read-out: Inhibition of ligand binding, Dopamine D2L

Sequence of histamine receptor H1 (P35367 whole entry): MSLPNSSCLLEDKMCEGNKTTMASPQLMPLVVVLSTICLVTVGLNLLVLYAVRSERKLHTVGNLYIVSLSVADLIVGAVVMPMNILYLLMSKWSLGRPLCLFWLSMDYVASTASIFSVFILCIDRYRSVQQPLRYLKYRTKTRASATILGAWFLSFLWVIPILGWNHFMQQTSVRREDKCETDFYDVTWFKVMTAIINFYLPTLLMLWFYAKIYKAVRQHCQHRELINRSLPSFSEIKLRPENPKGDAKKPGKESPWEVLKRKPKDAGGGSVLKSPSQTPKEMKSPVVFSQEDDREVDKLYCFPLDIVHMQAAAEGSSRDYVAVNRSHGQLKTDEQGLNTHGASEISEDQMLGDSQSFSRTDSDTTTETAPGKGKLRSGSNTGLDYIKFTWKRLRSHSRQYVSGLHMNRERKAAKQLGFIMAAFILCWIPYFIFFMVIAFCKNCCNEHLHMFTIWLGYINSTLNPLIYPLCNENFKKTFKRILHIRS

Row | SMILES | inhibition at 1 µM (histamine receptor H1) | inhibition at 1 µM [1, 2] | inhibition at 1 µM [1, 3]
1 | CNC(=O)c1ccc(C#Cn2c3c(c4cc(C)ccc42)CN(C)CC3)cc1F [Compound No. 488, 4-((2,8-dimethyl-3,4-dihydro-1H-pyrido[4,3-b]indol-5(2H)-yl)ethynyl)-2-fluoro-N-methylbenzamide] | 9% | 19% | –
2 | C/C(=C\n1c2c(c3cc(C)ccc31)CN(CC(F)(F)F)CC2)c1ccncc1 [Compound 291, (E)-8-methyl-5-(2-(pyridin-4-yl)prop-1-enyl)-2-(2,2,2-trifluoroethyl)-2,3,4,5-tetrahydro-1H-pyrido[4,3-b]indole] | -4% | – | 0%
3 | Cc1ccc2c(c1)c1c(n2C#Cc2ccncn2)CCN(C)C1 [Compound No. 499, 2,8-dimethyl-5-(pyrimidin-4-ylethynyl)-2,3,4,5-tetrahydro-1H-pyrido[4,3-b]indole] | 26% | 18% | –
4 | Cc1ccc2c(c1)c1c(n2C#Cc2ccc(C3CC3)nc2)CCN(C)C1 [Compound No. 496, 5-((6-cyclopropylpyridin-3-yl)ethynyl)-2,8-dimethyl-2,3,4,5-tetrahydro-1H-pyrido[4,3-b]indole] | 15% | 25% | –
5 | C/C(=C\n1c2c(c3cc(C)ccc31)CN(CCF)CC2)c1ccncc1 [compound 422, (E)-2-(2-fluoroethyl)-8-methyl-5-(2-(pyridin-4-yl)prop-1-enyl)-2,3,4,5-tetrahydro-1H-pyrido[4,3-b]indole] | 8% | 68% | –
6 | C/C(=C\n1c2c(c3cc(C)ccc31)CN(C)CC2)c1ccc(C(=O)N(C)C)cc1 [compound 436] | 12% | 69% | –
7 | C/C(=C/c1ccccc1)n1c2c(c3cc(C)ccc31)CN(C)CC2 [compound 429, (Z)-2,8-dimethyl-5-(1-phenylprop-1-en-2-yl)-2,3,4,5-tetrahydro-1H-pyrido[4,3-b]indole] | 101% | 30% | –
8 | C/C(=C\n1c2c(c3cc(Cl)ccc31)CN(CCCC(O)c1ccc(F)cc1)CC2)c1ccncc1 (stereo not shown) [compound 395, (E)-4-(8-chloro-5-(2-(pyridin-4-yl)prop-1-enyl)-3,4-dihydro-1H-pyrido[4,3-b]indol-2(5H)-yl)-1-(4-fluorophenyl)butan-1-ol] | 102% | 99% | –
9 | Cc1ccc2c(c1)c1c(n2/C=C(\F)c2ccc(Br)nc2)CCN(C)C1 [compound 416, (Z)-5-(2-(6-bromopyridin-3-yl)-2-fluorovinyl)-2,8-dimethyl-2,3,4,5-tetrahydro-1H-pyrido[4,3-b]indole] | 91% | 20% | –
10 | Cc1ccc2c(c1)c1c(n2C#Cc2cncn2C)CCN(C)C1 [Compound No. 497, 2,8-dimethyl-5-((1-methyl-1H-imidazol-5-yl)ethynyl)-2,3,4,5-tetrahydro-1H-pyrido[4,3-b]indole] | 17% | 14% | –
11 | COc1ccc(/C(C)=C/n2c3c(c4cc(C)ccc42)CN(C)CC3)cn1 [compound 441, (E)-5-(2-(6-methoxypyridin-3-yl)prop-1-enyl)-2,8-dimethyl-2,3,4,5-tetrahydro-1H-pyrido[4,3-b]indole] | 91% | 64% | –
12 | CC(=O)CN1CCc2c(c3cc(C)ccc3n2/C=C(\C)c2ccncc2)C1 [compound 427, (E)-1-(8-methyl-5-(2-(pyridin-4-yl)prop-1-enyl)-3,4-dihydro-1H-pyrido[4,3-b]indol-2(5H)-yl)propan-2-one] | 1% | 17% | –
13 | COc1ccc(/C(F)=C(/c2ccc(OC)nc2)n2c3c(c4cc(C)ccc42)CN(C)CC3)cn1 [compound 420, (E)-5-(2-fluoro-1,2-bis(6-methoxypyridin-3-yl)vinyl)-2,8-dimethyl-2,3,4,5-tetrahydro-1H-pyrido[4,3-b]indole] | 13% | 29% | –
14 | C/C(=C\n1c2c(c3cc(C)ccc31)CN(C)[C@@H](C)C2)c1ccncc1 [compound 389, (S,E)-2,3,8-trimethyl-5-(2-(pyridin-4-yl)prop-1-enyl)-2,3,4,5-tetrahydro-1H-pyrido[4,3-b]indole] | 39% | 49% | –
15 | Cc1ccc2c(c1)c1c(n2C=C(c2ccccc2)c2ccccc2)CCN(C)C1 [compound 409, 5-(2,2-diphenylvinyl)-2,8-dimethyl-2,3,4,5-tetrahydro-1H-pyrido[4,3-b]indole] | 18% | 54% | –
16 | CCCc1ccc(C#Cn2c3c(c4cc(Cl)ccc42)CN(C)CC3)cn1 [Compound No. 487, 8-chloro-2-methyl-5-((6-propylpyridin-3-yl)ethynyl)-2,3,4,5-tetrahydro-1H-pyrido[4,3-b]indole] | 75% | 17% | –
17 | C/C(=C\n1c2c(c3cc(Cl)ccc31)CN(C)CC2)c1cccs1 [Compound 338, (E)-8-chloro-2-methyl-5-(2-(thiophen-2-yl)prop-1-enyl)-2,3,4,5-tetrahydro-1H-pyrido[4,3-b]indole] | 83% | – | 97%
18 | C/C(=C(/C)n1c2c(c3cc(C)ccc31)CN(C)CC2)c1ccc(F)cc1 [compound 421, (E)-5-(3-(4-fluorophenyl)but-2-en-2-yl)-2,8-dimethyl-2,3,4,5-tetrahydro-1H-pyrido[4,3-b]indole] | 93% | 79% | –
19 | CC/C(=C\n1c2c(c3cc(C)ccc31)CN(C)CC2)c1ccncc1 [Compound 283, (E)-2,8-dimethyl-5-(2-(pyridin-4-yl)but-1-enyl)-2,3,4,5-tetrahydro-1H-pyrido[4,3-b]indole] | 23% | – | 66%
20 | CC(O)(Cn1c2c(c3cc(Cl)ccc31)CN(CCCC(=O)c1ccc(F)cc1)CC2)c1ccncc1 (stereo not shown) [Compound No. 464, 4-(8-chloro-5-(2-hydroxy-2-(pyridin-4-yl)propyl)-3,4-dihydro-1H-pyrido[4,3-b]indol-2(5H)-yl)-1-(4-fluorophenyl)butan-1-one] | 66% | 93% | –
21 | C/C(=C/n1c2c(c3cc(Cl)ccc31)CN(C)CC2)c1ccncc1C [compound 417, (Z)-8-chloro-2-methyl-5-(2-(3-methylpyridin-4-yl)prop-1-enyl)-2,3,4,5-tetrahydro-1H-pyrido[4,3-b]indole] | 48% | 87% | –
22 | CCCCNc1ccc2c(c1)c1c(n2/C=C(\C)c2ccncc2)CCN(C)C1 [compound 444, (E)-N-butyl-2-methyl-5-(2-(pyridin-4-yl)prop-1-enyl)-2,3,4,5-tetrahydro-1H-pyrido[4,3-b]indol-8-amine] | -13% | 36% | –
23 | C/C(=C\n1c2c(c3cc(C)ccc31)CN(C)CC2)c1cccs1 [Compound 294, (E)-2,8-dimethyl-5-(2-(thiophen-2-yl)prop-1-enyl)-2,3,4,5-tetrahydro-1H-pyrido[4,3-b]indole] | 83% | – | 83%

Reference: patent publication US8906925B2, “Pyrido[4,3-B]indoles containing rigid moieties” (Medivation Technologies, Inc., priority 2008, dated 2014)
